Results published in US10088484B2, “Isolated mucins and different microorganisms, and methods of use” (Massachusetts Institute of Technology, priority 2015, dated 2018).

Experiments:
[1] = test system: S. sanguinis; experiment: S. mutans / S. sanguinis competition model, S. sanguinis survival (Example 2); assay type: cell-based, Streptococcus sanguinis
Text: The effect of MUC5B on S. mutans and S. sanguinis competition and coexistence was examined. To examine the effect of MUC5B, a model was developed to allow sufficient competition between S. mutans and S. sanguinis (FIG. 7). The two bacteria compete when one colonizes the surface and the second bacteria is introduced after some time.
The presence of 0.3% mucins in control medium, BHI containing 1% sucrose (S Medium), enhances S. sanguinis survival when S. mutans is the primary colonizer (FIG. 8A). * statistically significant difference determined by Student's t test (p<0.05). […] When the ratios of bacteria are equal (FIG. 8C), there is less competition, and effect of MUC5B is small. When the ratio is slightly skewed (FIG. 8B), competition increases and the protective effect of MUC5B is visible. * statistically significant difference determined by Student's t test (p<0.05). The protective effect of MUC5B may increase as inter-species competition increases. […] MUC5B may play a role in establishing a healthy oral microbiome.
(§1) In FIG. 9, the biofilm is grown, then the supernatant is removed and the biofilm washed with PBS. To remove adherent cells, the bottom of the wells are scraped with a sterile pipette tip. Suspended cells are diluted, plated on agar and […] until colonies are visible.

[2] = test system: S. mutans; experiment: S. mutans attachment and biofilm formation on glass (Example 2); assay type: cell-based, Streptococcus mutans; settings: 0.3% polymer in BHI with 1% sucrose, compared to BHI with 1% sucrose
Procedure: as §1
As shown in FIG. 10A and FIG. 10B and FIG. 11A and FIG. 11B, salivary mucins decrease S. mutans attachment and biofilm formation. […] Error bars represent SDs. […] Scale Bars 20 μm.

[3] = test system: S. mutans; experiment: S. mutans growth curve and viable cell count (Example 2); assay type: cell-based, Streptococcus mutans; settings: 0.3% polymer in BHI with 1% sucrose
Text: As shown in FIG. 12 and FIG. 13, S. mutans survival is unaffected by salivary mucins. […] Error bars represent SDs. […] Error bars represent SDs.

[4] = test system: S. mutans; experiment: CFU count assay, biofilm formation and total cells, single-species model, S. mutans; assay type: cell-based, Streptococcus mutans UA159; settings: for reduction of S. mutans biofilm formation: 0.4% polymer
Procedure: (§2) For all experiments, S. mutans (bacterial strain Streptococcus mutans UA159) and S. sanguinis (erythromycin-resistant Streptococcus sanguinis JFP36) were grown overnight in Brain Heart Infusion (BHI) medium (Becton, Dickinson and Company). Before inoculating an experiment the cells were pelleted, washed with half-strength BHI containing 1% (wt/vol) sucrose (Sigma-Aldrich Company), then resuspended in half-strength BHI containing 1% sucrose. Acid-washed glass beads (425-600 μm, Sigma-Aldrich Company) were added to the resuspended bacteria to break up bacterial aggregates then the culture was vortexed for ten pulses of two seconds each. […] All experiments were performed in chambered glass slides at 37° C. with 5% CO2.
(§3) Equal numbers of CFU were inoculated into chambered glass slides then incubated. After a given amount of time, the supernatant was used to gently wash the biofilm to resuspend unattached cells, then the supernatant was removed. PBS was added to the wells then the biofilm was scraped using a sterile pipette tip. The supernatant and biofilm were vortexed with glass beads to individualize cells then the suspension was diluted, plated on BHI agar and incubated for 24-36 hours. […] Statistically significant differences were determined using the Student's t test, with P<0.05 considered significant.
(§4) The effect of MUC5B on S. sanguinis and S. mutans biofilm formation in single-species models was evaluated using colony forming units to quantify surface attached cells and the total number of viable cells in the supernatant and biofilm combined. Bacteria were grown in chambered glass slides in the presence of half-strength BHI with 1% sucrose and 0.4% MUC5B. […] Half-strength BHI was used to provide consistent media conditions throughout experiments in this study. […] All comparisons of viable CFU discussed in the results are determined relative to the control with half-strength BHI and 1% sucrose.

[5] = test system: S. sanguinis; experiment: CFU count assay, biofilm formation and total cells, single-species model, S. sanguinis; assay type: cell-based, Streptococcus sanguinis JFP36; settings: for reduction of S. sanguinis biofilm formation: 0.4% polymer, relative to control
Procedure: as §2, §3, §4

[6] = test system: S. mutans
Procedure: For dual-species models where S. mutans was the primary colonizer, S. mutans (10^7) was inoculated and incubated for 3 hours then S. sanguinis (10^6) was inoculated. For dual-species models where S. sanguinis was the primary colonizer, S. sanguinis (10^8) was inoculated, incubated for 3 hours, then S. mutans (10^7) was inoculated. After the secondary colonizer was inoculated, the dual-species culture was incubated until the time points indicated. For experiments quantifying biofilm formation, at the end of the experiment the supernatant was used to gently wash the biofilm to resuspend unattached cells, then the supernatant was removed. […] For experiments quantifying total cells, at the end of the experiment a sterile pipette tip was used to scrape the biofilm, then the suspension of biofilm and supernatant cells was vortexed with glass beads. […] Statistically significant differences were determined using the Student's t test, with P<0.05 considered significant.
An in vitro competition model was used to determine the effects of MUC5B on S. mutans and S. sanguinis biofilm formation when co-cultured. […] After 4 hours of co-culture, the supernatant was removed and the number of S. mutans and S. sanguinis in the biofilm were quantified by colony forming units. […] All comparisons of viable CFU discussed in the results are determined relative to the control with half-strength BHI and 1% sucrose. […]

[7] = test system: S. sanguinis; experiment: Dual-species competition model, S. mutans primary colonizer: S. sanguinis CFU; assay type: cell-based, Streptococcus sanguinis JFP36; settings: for increase of live S. sanguinis cells (secondary colonizer): S. mutans primary colonizer
Procedure: (§5) Agar was incubated for 24-36 hours.

[8] = test system: S. sanguinis; experiment: Dual-species competition model, S. sanguinis primary colonizer: S. sanguinis CFU; assay type: cell-based, Streptococcus sanguinis JFP36; settings: 4 hours of co-culture
Procedure: as §5

[9] = test system: S. mutans; experiment: Dual-species competition model, S. sanguinis primary colonizer: S. mutans CFU; assay type: cell-based, Streptococcus mutans UA159; settings: for increase of S. mutans CFU (secondary colonizer): S. sanguinis primary colonizer
Procedure: For dual-species models where S. mutans was the primary colonizer, S. mutans (10^7) was inoculated and incubated for 3 hours then S. sanguinis (10^6) was inoculated. For dual-species models where S. sanguinis was the primary colonizer, S. sanguinis (10^8) was inoculated, incubated for 3 hours, then S. mutans (10^7) was inoculated. After the secondary colonizer was inoculated, the dual-species culture was incubated until the time points indicated. For experiments quantifying biofilm formation, at the end of the experiment the supernatant was used to gently wash the biofilm to resuspend unattached cells, then the supernatant was removed. PBS was added to the wells then the biofilm was scraped using a sterile pipette tip. For experiments quantifying total cells, at the end of the experiment a sterile pipette tip was used to scrape the biofilm, then the suspension of biofilm and supernatant cells was vortexed with glass beads. For both experiments, cell suspensions were diluted then plated on BHI agar containing 10 μg/ml erythromycin to select for S. sanguinis and BHI agar with 1 U/ml bacitracin to select for S. mutans. Agar was incubated for 24-36 hours. […] Statistically significant differences were determined using the Student's t test, with P<0.05 considered significant.
An in vitro competition model was used to determine the effects of MUC5B on S. mutans and S. sanguinis biofilm formation when co-cultured. In this model, the pioneering colonizer was incubated for 3 hours then the secondary colonizer was inoculated and co-cultured for 4 hours (FIG. 15). The competition model used in this study is based on previous work by Kreth et al, J. Bacteriol. 187:7193-7203 (2005). In addition, sequential inoculation allows us to study competition in models where either S. sanguinis or S. mutans is the dominant species, which is relevant to the natural environment of the oral cavity. After 4 hours of co-culture, the supernatant was removed and the number of S. mutans and S. sanguinis in the biofilm were quantified by colony forming units. This method was used to evaluate biofilm formation when S. mutans is the primary colonizer (FIG. 16A) and when S. sanguinis is the primary colonizer (FIG. 16B). All comparisons of viable CFU discussed in the results are determined relative to the control with half-strength BHI and 1% sucrose.
To evaluate the effect of MUC5B on the viability of S. mutans and S. sanguinis in a dual-species competition model, the primary colonizer was incubated for 3 hours then inoculated the secondary colonizer and evaluated the total number of viable cells for each species over several hours (FIG. 15). […] Comparisons of viable CFU discussed in the results are determined relative to the control with half-strength BHI and 1% sucrose.

[10] = test system: S. mutans; experiment: S. mutans growth curve, mono-species culture (Example 3); assay type: cell-based, Streptococcus mutans UA159
Procedure: (§6) The suspensions were vortexed with glass beads to individualize cells, then approximately 10^6 cells were inoculated into wells of a 96-well polystyrene plate. At 2-hour intervals the bottom of the wells were scraped to remove any adherent cells, mixed, and an aliquot was removed, diluted and plated on BHI agar. Agar was incubated and CFU were counted after 24-36 hours.
(§7) The growth of S. mutans and S. sanguinis in the same medium used for competition experiments was evaluated to determine if the observed increase in viable cells in the presence of MUC5B (FIGS. 17A-C and FIGS. 18A-C) was due to enhanced bacterial growth. […] Growth in PBS containing MUC5B was studied to better understand if S. mutans and S. sanguinis can utilize MUC5B as a nutrient source when other nutrients are limited.

[11] = test system: S. sanguinis; experiment: S. sanguinis growth curve, mono-species culture (Example 3); assay type: cell-based, Streptococcus sanguinis JFP36
Procedure: as §6, §7

With “MUC5B: salivary mucin MUC5B purified by FPLC from pooled human submandibular saliva” the “S. sanguinis survival when S. mutans is the primary colonizer” value ([1]; 0.3% mucins in BHI with 1% sucrose, S. sanguinis inoculated 3 hours after S. mutans, 4 hours incubation, p<0.05) was “enhances”, the “protective effect, ratio of bacteria slightly skewed” value ([1]; ratio slightly skewed (FIG. 8B)) was “visible” and the “effect on S. sanguinis / S. mutans competition, equal ratios of bacteria” value ([1]; ratios of bacteria equal (FIG. 8C)) was “small”. For the same substance, the “levels of S. mutans attachment and biofilm formation on glass” value [2] was “significantly reduces”, the “growth of S. mutans (growth curve)” value [3] was “does not alter the growth” and the “number of viable S. mutans cells (bactericidal effect)” value ([3]; timepoints up to 24 hours) was “no bactericidal effects”. For the same substance, the “total number of viable S. mutans cells (biofilm and supernatant)” value ([4]; 6 hours) was “decreased slightly”, the “reduction of S. mutans biofilm formation” value ([4]; 6 hours, relative to half-strength BHI with 1% sucrose) was 94% and the “S. mutans cells in the biofilm as share of total cells” value ([4]; 6 hours, with MUC5B (control without polymer 66%)) was 13%. The “total number of S. mutans cells” value ([4]; 9 hours) was “no significant effect”, the “reduction of S. mutans biofilm formation” value ([4]; 9 hours, relative to control) was 92% and the “number of viable S. sanguinis in the biofilm and supernatant” value ([5]; 6 and 9 hours) was “did not change”. For the same substance, the “reduction of S. sanguinis biofilm formation” value ([5]; 6 hours) was 94%, the “reduction of S. sanguinis biofilm formation” value ([5]; 9 hours) was 86% and the “decrease of S. mutans (primary colonizer) biofilm formation” value ([6]; 4 hours of co-culture, relative to control) was 95%. For the same substance, the “effect on total viable S. mutans cells” value ([6]; S. mutans primary colonizer, 5 hours of co-culture) was “no effect”, the “increase of S. sanguinis (secondary colonizer) biofilm formation” value ([7]; S. mutans pioneering species, 4 hours of co-culture) was 313% and the “increase of live S. sanguinis cells (secondary colonizer)” value ([7]; 4 hours of co-culture) was 1670%. The “increase of live S. sanguinis cells (secondary colonizer)” value ([7]; 5 hours of co-culture) was 8700%, the “reduction of S. sanguinis (pioneering species) biofilm formation” value ([8]; S. sanguinis pioneering species) was 68% and the “increase of viable S. sanguinis cells (primary colonizer)” value ([8]; S. sanguinis primary colonizer) was 826%. The “effect on S. mutans (secondary colonizer) biofilm formation” value ([9]; S. sanguinis pioneering species, 4 hours of co-culture) was “no significant effect”, the “increase of S. mutans CFU (secondary colonizer)” value (from here on “increase of S. mutans CFU”) ([9]; 4 hours of co-culture) was 74% and the “increase of S. mutans CFU” value ([9]; 5 hours of co-culture) was 235%. For the same substance, the “increase of S. mutans CFU” value ([9]; 6 hours of co-culture) was 568%, the “effect on S. mutans growth” value ([10]; 0.4% polymer in half-strength BHI with 1% sucrose, time points up to 10 hours) was “slightly reduced or had no effect” and the “S. mutans growth with MUC5B as nutrient source” value ([10]; PBS with 0.4% MUC5B) was “neither bacterium can utilize MUC5B to enhance growth”. The “effect on S. sanguinis growth” value ([11]; 0.4% polymer in half-strength BHI with 1% sucrose) was “not significantly changed” and the “S. sanguinis growth with MUC5B as nutrient source” value ([11]; PBS with 0.4% MUC5B) was “neither bacterium can utilize MUC5B to enhance growth”.
